Key:
Caco-2 cells = test: MTT cell viability assay, IC50 in Caco-2 cells; assay type: cell-based; details: Homo sapiens, 24 h, SE less than 10% of value
Experimental: (§1) The human liver hepatocellular carcinoma cell line, HepG2, and the human adenocarcinoma of colon cell line, Caco-2, were cultured in Eagle’s Minimum Essential medium supplemented with 1% (v/v) non-essential amino acids, 0.2 mM L-glutamine, 50 units/mL penicillin, 50 μg/mL streptomycin and 10% (v/v) or 20% (v/v) fetal bovine serum (Sigma Aldrich, Milan, Italy) for HepG2 or Caco-2, respectively. The human embryonal lung fibroblast cell line, MRC5, was cultured in Dulbecco’s Modified Eagle medium (Sigma Aldrich, Milan, Italy) supplemented with 10% (v/v) fetal bovine serum, 0.2 mM L-glutamine, 50 units/mL penicillin and 50 μg/mL streptomycin. HUVEC cells were cultured in endothelial growth medium-2, supplemented with fetal bovine serum (2%), VEGF (0.1%), rH FGF-B (0.4%), rH EGF (0.1%), GA-1000 (0.1%), hydrocortisone (0.04%), R3-IGF-1 (0.1%), heparin (0.1%) and ascorbic acid (0.1%). Cells were maintained at 37 °C in a 5% CO2, 95% air-humidified atmosphere and passaged twice a week. Cell lines were obtained from Interlab Cell Line Collection, Istituto Nazionale per la Ricerca sul Cancro, Genoa, Italy. HUVEC were obtained from Lonza (Milan, Italy).
(§2) An MTT assay was used to analyse cell viability. Cells were seeded in 96 wells at the density of 2 × 10^4/cm^2 and, after 24 h, they were treated with P. tomentosa compounds or with the vehicle (DMSO). After a further 24 h of treatment, 0.5 mg/mL of MTT was added to the cell medium and incubated for 1.5 h at 37 °C. The resulting formazan crystals were dissolved in 100 μL of DMSO and absorbances were measured at 595 nm and 655 nm. The background signals at 655 nm were subtracted from 595 nm signals, and data were expressed as a percent of cell viability. The concentration of each compound that is required for 50% inhibition in vitro (IC50) was calculated as described in Husseini et al.. IC50 values were obtained for Caco-2, HepG2 and MRC5 cells by performing MTT assays with concentrations ranging from 0.01 μg/mL to 5 μg/mL.

HepG2 cells [1] = test: MTT cell viability assay, IC50 in HepG2 cells; assay type: cell-based; details: Homo sapiens, 24 h, SE less than 10% of value
Experimental: as §1, §2

MRC5 cells = test: MTT cell viability assay, IC50 in MRC5 cells; assay type: cell-based; details: Homo sapiens, 24 h, SE less than 10% of value
Experimental: as §1, §2

[2] = test system: HepG2, Caco-2, MRC5 and HUVEC cells; test: MTT assay, comparison of cytotoxic effects at 1 μM on four cell types; assay type: cell-based, human; details: 24 h, Caco-2, HepG2, MRC5, HUVEC
Description: We focused attention on 12β,6′-dihydroxycalotropin (1), 16α-hydroxycalotropin (2), 12β-hydroxycalactin (3), calotropin (4), and calactin (5), among those described by Hosseini et al., and tested their cytotoxic activity by a 3-(4,5-dime-thylthiazol-2-yl)-2,5-diphenylte-tetrazolium bromide (MTT) assay on two cancer cell lines (HepG2 and Caco-2), not previously employed, on an immortalised nontumoral cell line (MRC5) and normal primary cells (HUVEC).
Figure 2 Comparison of cytotoxic effects of P. tomentosa compounds on cancer cell lines (Caco-2 and HepG2), on an immortalised cell line (MRC5) and normal cells (HUVEC). Cells were treated for 24 h with 1 μM of each compound. Residual viability was measured by the MTT assay. Values are the means ± standard error (SE) of three independent experiments performed in triplicate. Statistical analysis was performed using the Student’s t-test. * p < 0.05 and ** p < 0.01 vs. cells treated with the vehicle (DMSO).
as §1, §2

HepG2 cells [3] = test: BrdU incorporation (proliferation) assay; assay type: cell-based, human; details: HepG2, 1 μM, 24 h
Experimental: Cell proliferation was analysed by a BrdU (Roche Diagnostics SpA, Monza, Italy) incorporation assay, as previously described. Briefly, HepG2 cells, seeded at adensity of 3 × 10^3/cm^2 on round glass cover slips, were treated for 24 h with P. tomentosa compounds at 1 μM. Then, BrdU was added to cell medium (final concentration, 100 μM) for 1 h. Cells were fixed (in 3% paraformaldehyde, 10 min), permeabilised (in 0.2% Triton X-100, 5 min) and treated with HCl 1.5 N (5 min). Finally, cover slips were incubated with a monoclonal antibody against BrdU (Sigma-Aldrich, Milan, Italy), 1:100, and with a TRITC-conjugated secondary antibody, 1:100. After staining with Hoechst, cover slips were mounted with Mowiol (Sigma, Milan, Italy). […] Images were acquired with Axiocam MRc5 and processed with ImageJ Launcher. The number of cells into S-phase was expressed as the ratio between the number of cells incorporating BrdU and the total number of cells.

HepG2 cells [4] = test: Scratch-wound-healing assay; assay type: cell-based, human; details: HepG2, 1 μM, 24, 48 and 72 h
Experimental: Cells were seeded at a density of 5 × 10^4 cells/well in 24-well plates and allowed to grow for 72 h, reaching confluence. Mitomycin C (10 μg/mL) was added to inhibit proliferation, and then a sterile 2–10 μL pipette tip was used to perform a vertical scratch in the monolayer of each well. Detached cells were removed by washing with phosphate-buffered saline. Then, 300 μL of fresh medium containing P. tomentosa compounds (1 μM) or vehicle was added to each well and incubated for 72 h. Images of migrating cells were taken at 0, 24, 48 and 72 h, by using an Olympus CKX41 fluorescent microscope (Olympus Italia srl, Segrate, Italy) and elaborated by the ImageJ software. For each scratch, wound width was calculated as the average distance between the edges in four different sites. Then, reductions in wound wights at 24, 48 and 72 h were expressed as % of the width at time zero.

HepG2 cells [5] = test: TUNEL assay; assay type: cell-based, human; details: HepG2, 1 μM, 24 h
Experimental: Microscopic evaluation of apoptosis was performed by a TUNEL assay, using a commercial kit (Fragment End Labelling (FragEL™), […]) DNA Fragmentation Detection Kit, Sigma-Aldrich, Milan, Italy) according to the manufacturer-provided protocol, with some modifications. Briefly, cells were seeded on glass cover slips placed in 24-well plates at a density of 3.5 × 10^3/cm^2 and, after 48 h, they were treated with 1 μΜ of each compound for a further 24 h. Cells were fixed in 3% paraformaldehyde for 10 min, permeabilised in 0.2% Triton X-100 for 5 min and treated with HCl 1.5 N for 8 min. Finally, cover slips were equilibrated in equilibration buffer (10 min) and incubated with label mix containing the TdT enzyme for 1 h at 37 °C, then mounted with mounting media. Microscope observations were performed by the AxioSkop 40 fluorescent microscope. Images were acquired with Axiocam MRc5 (Carl Zeiss MicroImaging, Inc., Jena, Germany).

caspase-3 in HepG2 cells = test: Western blot of cleaved caspase-3; assay type: cell-based, human; details: HepG2, 2 μM, 7 h, Western blot densitometry
Experimental: To analyse the protein levels of p53, caspase-3, GRP78, LC3 and p62, HepG2 cells were treated with P. tomentosa compounds (1 or 2 μM) or with DMSO for the indicated times; then, Western blot analyses were performed. Briefly, cells were lysed in RIPA buffer (20 mM Tris-HCl, pH 7.5, 150 mM NaCl, 1 mM EDTA, 1 mM dithiothreitol, 0.1% sodium dodecyl sulphate, 1% triton X-100, 1 mM orthovanadate, and a cocktail of inhibitors (Sigma-Aldrich, Milan, Italy)). After separation on a sodium dodecyl sulphate-polyacrylamide gel electrophoresis and transfer to a poly-vinylidene fluoride membrane (Euroclone, Milan, Italy), the following primary antibodies were used, at a dilution of 1:1000 in tris-buffered saline containing 1% non-fat dry milk, overnight at 4 °C: mouse anti-p53 antibody, mouse anti-MAP LC3 β antibody, mouse anti-p62 antibody (DBA, Milan, Italy), mouse anti-GRP78 antibody, and mouse anti-caspase 3 antibody (Thermo Fisher Scientific, Milan, Italy). For normalisation, a mouse anti-GAPDH antibody (Microtech, Naples, Italy) was used.

HepG2 cells [6] = test: Transwell migration assay; assay type: cell-based, human; details: HepG2, 1 μM, 18 h
Experimental: Transwell filters (coated with collagen) in serum-free media containing 0.1% of BSA, with a PET membrane with 8 μm pores (BD Biosciences, Milan, Italy), were rehydrated for 2 h at 37 °C. HepG2 were seeded in the upper chambers at a density of 75 × 10^3 cells in MEM with 0.1% BSA and treated with or without 1 µM of Pergularia compounds. MEM−0.1%BSA, supplemented with 10% FBS, was added to the lower chamber as chemoattractant. Control wells without 10% FBS were included to assess random migration. After incubation at 37 °C in 5% CO2 for 18 h, the migrated cells were fixed with 4% paraformaldehyde for 5 min, permeabilised with methanol for 20 min and stained with crystal violet 0.5% for 15 min at room temperature. The cells on the lower side of the filter were allowed to dry before counting. Eight separate bright-field images were randomly acquired of each filter using an Olympus CKX41 Image Analyzer. The cells in each image were counted and analysed compared to control-transfected cells.

XBP1 in HepG2 cells = test: XBP1 splicing detection; assay type: cell-based, human; details: HepG2, 1 μM, 4 h
Experimental: To detect the unspliced and the spliced form of XBP1, we followed the protocol described by Martucciello et al.. After treatments for 4 h with 1 μM of each compound, or DMSO, or thapsigargin (1 μM), RNA was isolated and retro-transcripted. PCR analyses were performed with the following primers: 5′- […]-3′; 5′-[…]-3′. After 35 cycles (heating at 94 °C for 30 s, annealing at 58 °C for 45 s, and polymerisation at 72 °C for 60 s), amplified cDNA was visualised on 2.5% agarose gel, stained with an ethidium bromide solution.

SMILES	IC50 (Caco-2 cells)	IC50 (HepG2 cells [1])	IC50 (MRC5 cells)	relative cytotoxicity (residual viability, MTT) [2]	effect on BrdU incorporation / cell cycle progression (HepG2 cells [3])	effect on wound closure (HepG2 cells [4])	apoptotic nuclei (TUNEL) (HepG2 cells [5])	reduction of number of cells that incorporated BrdU compared to the vehicle (HepG2 cells [3])	cleaved caspase-3 (caspase-3 activation) (caspase-3 in HepG2 cells)	effect on transwell migration (HepG2 cells [6])	XBP1 splicing (XBP1 in HepG2 cells)
C[C@@H]1C[C@H](O)[C@]2(O)O[C@@H]3C[C@@]4(C=O)C(CCC5C4CC[C@]4(C)C(C6=CC(=O)OC6)[C@H](O)C[C@]54O)C[C@H]3O[C@@H]2O1 (stereo partly drawn) [Compound 2, 16α-hydroxycalotropin]	2.43 µM	2.34 µM	2.31 µM	intermediate cytotoxicity	significantly affected cell cycle progression	interfered with the wound closure at 72 h only	less evident				
C[C@@H]1C[C@H](O)[C@]2(O)O[C@@H]3C[C@@]4(C=O)[C@@H](CC[C@@H]5[C@@H]4CC[C@]4(C)[C@@H](C6=CC(=O)OC6)CC[C@]54O)C[C@H]3O[C@@H]2O1 [Compound 4, calotropin]	0.767 µM	0.83 µM	0.424 µM	most cytotoxic	significantly affected cell cycle progression	not affect cell migration, at any time	occurrence of apoptotic nuclei	about 40%	most active		
C[C@@]12C(C3=CC(=O)OC3)CC[C@]1(O)C1CCC3C[C@H]4O[C@@H]5O[C@H](CO)C[C@H](O)[C@]5(O)O[C@@H]4C[C@]3(C=O)C1C[C@H]2O (stereo partly drawn) [Compound 1, 12β,6′-dihydroxycalotropin]	1.54 µM	2.61 µM	2.21 µM	intermediate cytotoxicity	slightly (but not significantly) reduced BrdU incorporation	interfered with the wound closure after 48 and 72 h	less evident			reduce migration	
C/C=C(/C)C(=O)O[C@H]1C(C)=C2[C@H]([C@@H]1OC(=O)CCCCCCC)[C@@](C)(OC(C)=O)C[C@H](OC(=O)CCC)[C@@]1(O)[C@H]2OC(=O)[C@@]1(C)O [thapsigargin]											appearance of the spliced form

Source: article PMC9369610, “Pro-Apoptotic and Pro-Autophagic Properties of Cardenolides from Aerial Parts of Pergularia tomentosa” (Molecules, 2022)
